Measurements published in the kinase profiling compilation of Christmann-Franck et al. (2016).

Columns and labels:
Test in all cases: radiometric filter-binding kinase assay
[1] = biological target: DYRK2 (human) (UniProt Q92630)
[2] = biological target: TAOK1 (human) (UniProt Q7L7X3)
[3] = biological target: RPS6KA3 KD1 KD2 (human) (UniProt P51812)
[4] = biological target: MST4 (human) (UniProt Q9P289); details: compound 10.0 µM
[5] = biological target: EPHA2 (human) (UniProt P29317)
[6] = biological target: EEF2K (human) (UniProt O00418)
[7] = biological target: MAPKAPK5 (human) (UniProt Q8IW41); details: compound 1.0 µM
[8] = biological target: CDK2 CCNA2 (human) (UniProt P20248+P24941)
[9] = biological target: BRSK1 (human) (UniProt Q8TDC3); details: compound 1.0 µM
[10] = biological target: INSRR (human) (UniProt P14616)
Sequence of INSRR (human) (P14616 whole entry, looked up): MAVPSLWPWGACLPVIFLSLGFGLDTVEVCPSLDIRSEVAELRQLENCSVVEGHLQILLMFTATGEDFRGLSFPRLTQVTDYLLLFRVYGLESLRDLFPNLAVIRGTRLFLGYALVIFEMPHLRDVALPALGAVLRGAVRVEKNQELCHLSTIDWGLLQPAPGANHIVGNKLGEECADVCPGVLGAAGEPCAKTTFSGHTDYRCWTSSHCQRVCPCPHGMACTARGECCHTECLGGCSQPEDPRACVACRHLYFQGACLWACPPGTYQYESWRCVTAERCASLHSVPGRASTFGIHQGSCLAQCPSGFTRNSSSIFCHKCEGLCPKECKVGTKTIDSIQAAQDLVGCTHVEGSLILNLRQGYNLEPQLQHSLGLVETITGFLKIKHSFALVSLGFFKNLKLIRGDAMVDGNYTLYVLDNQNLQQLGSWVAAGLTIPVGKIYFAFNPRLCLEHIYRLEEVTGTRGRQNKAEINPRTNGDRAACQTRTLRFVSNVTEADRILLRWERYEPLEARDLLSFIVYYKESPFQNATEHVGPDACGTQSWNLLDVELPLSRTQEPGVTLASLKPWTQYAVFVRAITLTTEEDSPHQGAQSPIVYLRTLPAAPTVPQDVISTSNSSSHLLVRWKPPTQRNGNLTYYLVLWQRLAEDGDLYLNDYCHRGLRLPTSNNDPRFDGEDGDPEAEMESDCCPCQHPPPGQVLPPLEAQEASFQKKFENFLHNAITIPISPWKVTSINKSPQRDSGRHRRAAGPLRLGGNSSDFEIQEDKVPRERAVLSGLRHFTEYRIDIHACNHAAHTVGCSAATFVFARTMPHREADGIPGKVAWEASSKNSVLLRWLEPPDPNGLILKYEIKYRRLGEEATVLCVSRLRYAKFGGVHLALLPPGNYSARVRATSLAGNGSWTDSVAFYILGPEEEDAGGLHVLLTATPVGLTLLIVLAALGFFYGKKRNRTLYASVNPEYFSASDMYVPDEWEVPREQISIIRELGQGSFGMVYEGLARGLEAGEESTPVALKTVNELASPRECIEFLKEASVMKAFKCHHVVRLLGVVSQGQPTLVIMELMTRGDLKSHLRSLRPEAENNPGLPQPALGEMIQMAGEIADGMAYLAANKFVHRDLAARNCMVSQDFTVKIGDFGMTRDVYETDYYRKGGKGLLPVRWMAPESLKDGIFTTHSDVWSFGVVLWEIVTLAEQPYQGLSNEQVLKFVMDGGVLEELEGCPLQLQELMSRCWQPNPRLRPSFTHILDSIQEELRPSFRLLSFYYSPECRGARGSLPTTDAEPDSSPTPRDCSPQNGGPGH

[11] = biological target: PIM2 (human) (UniProt Q9P1W9)
Sequence of PIM2 (human) (Q9P1W9 whole entry, looked up): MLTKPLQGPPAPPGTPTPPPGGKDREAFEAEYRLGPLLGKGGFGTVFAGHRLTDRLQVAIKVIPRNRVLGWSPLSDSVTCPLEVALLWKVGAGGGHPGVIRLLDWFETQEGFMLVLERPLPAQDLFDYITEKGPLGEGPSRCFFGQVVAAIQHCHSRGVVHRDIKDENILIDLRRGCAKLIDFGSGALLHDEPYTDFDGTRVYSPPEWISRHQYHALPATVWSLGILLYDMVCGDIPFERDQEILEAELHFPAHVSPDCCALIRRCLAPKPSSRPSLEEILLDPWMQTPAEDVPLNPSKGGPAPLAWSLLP

[12] = biological target: MELK (human) (UniProt Q14680)
Sequence of MELK (human) (Q14680 whole entry, looked up): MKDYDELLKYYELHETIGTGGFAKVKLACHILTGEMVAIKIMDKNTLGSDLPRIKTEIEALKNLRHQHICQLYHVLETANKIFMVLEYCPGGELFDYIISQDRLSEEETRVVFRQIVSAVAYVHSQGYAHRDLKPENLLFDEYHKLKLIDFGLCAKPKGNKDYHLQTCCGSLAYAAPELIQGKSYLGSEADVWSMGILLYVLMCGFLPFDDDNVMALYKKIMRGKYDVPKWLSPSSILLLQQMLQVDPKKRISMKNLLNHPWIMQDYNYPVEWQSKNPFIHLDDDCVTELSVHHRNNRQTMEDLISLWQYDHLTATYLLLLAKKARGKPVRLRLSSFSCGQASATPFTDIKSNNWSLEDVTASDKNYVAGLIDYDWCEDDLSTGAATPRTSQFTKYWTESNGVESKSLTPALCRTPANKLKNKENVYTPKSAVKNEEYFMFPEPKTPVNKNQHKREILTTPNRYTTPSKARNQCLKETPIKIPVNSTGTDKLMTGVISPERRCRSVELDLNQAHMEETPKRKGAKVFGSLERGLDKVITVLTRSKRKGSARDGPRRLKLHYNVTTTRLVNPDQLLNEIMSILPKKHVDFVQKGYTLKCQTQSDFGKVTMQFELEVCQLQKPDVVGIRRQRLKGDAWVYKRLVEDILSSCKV

[13] = biological target: MAPK15 (human) (UniProt Q8TD08)
[14] = biological target: MAP2K6 (human) (UniProt P52564)
[15] = biological target: CSNK2A1 (human) (UniProt P68400)
[16] = biological target: PIM3 (human) (UniProt Q86V86)
[17] = biological target: RIPK2 (human) (UniProt O43353)
Sequence of RIPK2 (human) (O43353 whole entry, looked up): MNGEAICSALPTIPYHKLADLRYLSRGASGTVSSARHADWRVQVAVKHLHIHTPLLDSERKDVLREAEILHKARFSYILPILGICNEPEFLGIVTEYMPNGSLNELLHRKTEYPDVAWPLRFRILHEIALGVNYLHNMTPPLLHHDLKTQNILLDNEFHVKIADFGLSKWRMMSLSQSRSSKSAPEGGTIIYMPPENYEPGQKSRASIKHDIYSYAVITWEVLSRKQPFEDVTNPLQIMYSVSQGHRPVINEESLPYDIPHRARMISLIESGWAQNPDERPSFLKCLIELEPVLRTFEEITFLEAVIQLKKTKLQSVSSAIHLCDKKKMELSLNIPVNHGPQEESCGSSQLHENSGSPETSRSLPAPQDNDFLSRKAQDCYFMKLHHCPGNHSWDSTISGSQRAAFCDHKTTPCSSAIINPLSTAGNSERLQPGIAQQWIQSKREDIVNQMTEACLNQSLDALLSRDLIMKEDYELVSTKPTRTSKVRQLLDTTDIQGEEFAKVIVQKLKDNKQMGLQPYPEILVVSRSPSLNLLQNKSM

[18] = biological target: AURKB (human) (UniProt Q96GD4)
[19] = biological target: FGFR1 (human) (UniProt P11362)
[20] = biological target: MAP2K2 (human) (UniProt P36507)
[21] = biological target: MINK1 (human) (UniProt Q8N4C8)
[22] = biological target: MAPKAPK3 (human) (UniProt Q16644)
Sequence of MAPKAPK3 (human) (Q16644 whole entry, looked up): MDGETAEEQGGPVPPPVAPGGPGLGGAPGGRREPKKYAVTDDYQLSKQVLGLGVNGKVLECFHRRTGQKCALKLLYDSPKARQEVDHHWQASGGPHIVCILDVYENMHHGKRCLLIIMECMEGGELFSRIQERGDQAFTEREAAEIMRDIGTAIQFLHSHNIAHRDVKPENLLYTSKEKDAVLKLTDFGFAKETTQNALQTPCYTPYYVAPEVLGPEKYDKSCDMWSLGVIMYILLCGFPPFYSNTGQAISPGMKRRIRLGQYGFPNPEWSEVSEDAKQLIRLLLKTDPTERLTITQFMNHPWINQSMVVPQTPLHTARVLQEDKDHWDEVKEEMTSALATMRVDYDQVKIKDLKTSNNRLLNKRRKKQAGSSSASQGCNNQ

[23] = biological target: CHEK1 (human) (UniProt O14757)
Sequence of CHEK1 (human) (O14757 whole entry, looked up): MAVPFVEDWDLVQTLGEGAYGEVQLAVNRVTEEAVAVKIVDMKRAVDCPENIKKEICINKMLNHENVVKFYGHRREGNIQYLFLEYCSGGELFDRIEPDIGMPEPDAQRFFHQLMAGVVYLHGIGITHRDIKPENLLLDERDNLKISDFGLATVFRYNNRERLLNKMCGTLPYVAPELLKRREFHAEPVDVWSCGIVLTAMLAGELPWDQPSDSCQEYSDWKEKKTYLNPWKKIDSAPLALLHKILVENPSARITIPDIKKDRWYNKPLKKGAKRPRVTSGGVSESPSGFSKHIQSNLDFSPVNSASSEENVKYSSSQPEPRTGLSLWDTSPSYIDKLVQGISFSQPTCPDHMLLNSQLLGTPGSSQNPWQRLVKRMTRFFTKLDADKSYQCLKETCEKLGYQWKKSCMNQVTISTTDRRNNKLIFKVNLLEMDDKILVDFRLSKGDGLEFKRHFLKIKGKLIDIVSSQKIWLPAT

[24] = biological target: BTK (human) (UniProt Q06187)
[25] = tested on: SGK1 (human), O00141 [S422D]; details: compound 1.0 µM
[26] = biological target: FLT1 (human) (UniProt P17948)
[27] = biological target: PRKCA (human) (UniProt P17252)
[28] = biological target: MAPK10 (human) (UniProt P53779)
[29] = biological target: ERBB4 (human) (UniProt Q15303)
[30] = biological target: GCK (human) (UniProt Q12851)
[31] = biological target: AURKA (human) (UniProt O14965)
[32] = biological target: SRPK1 (human) (UniProt Q96SB4)
[33] = biological target: PHKG1 (human) (UniProt Q16816)
[34] = tested on: PAK2 (human), Q13177 [T402E]
[35] = biological target: PRKACA (human) (UniProt P17612)

Sequence of EPHA2 (human) (P29317 whole entry, looked up): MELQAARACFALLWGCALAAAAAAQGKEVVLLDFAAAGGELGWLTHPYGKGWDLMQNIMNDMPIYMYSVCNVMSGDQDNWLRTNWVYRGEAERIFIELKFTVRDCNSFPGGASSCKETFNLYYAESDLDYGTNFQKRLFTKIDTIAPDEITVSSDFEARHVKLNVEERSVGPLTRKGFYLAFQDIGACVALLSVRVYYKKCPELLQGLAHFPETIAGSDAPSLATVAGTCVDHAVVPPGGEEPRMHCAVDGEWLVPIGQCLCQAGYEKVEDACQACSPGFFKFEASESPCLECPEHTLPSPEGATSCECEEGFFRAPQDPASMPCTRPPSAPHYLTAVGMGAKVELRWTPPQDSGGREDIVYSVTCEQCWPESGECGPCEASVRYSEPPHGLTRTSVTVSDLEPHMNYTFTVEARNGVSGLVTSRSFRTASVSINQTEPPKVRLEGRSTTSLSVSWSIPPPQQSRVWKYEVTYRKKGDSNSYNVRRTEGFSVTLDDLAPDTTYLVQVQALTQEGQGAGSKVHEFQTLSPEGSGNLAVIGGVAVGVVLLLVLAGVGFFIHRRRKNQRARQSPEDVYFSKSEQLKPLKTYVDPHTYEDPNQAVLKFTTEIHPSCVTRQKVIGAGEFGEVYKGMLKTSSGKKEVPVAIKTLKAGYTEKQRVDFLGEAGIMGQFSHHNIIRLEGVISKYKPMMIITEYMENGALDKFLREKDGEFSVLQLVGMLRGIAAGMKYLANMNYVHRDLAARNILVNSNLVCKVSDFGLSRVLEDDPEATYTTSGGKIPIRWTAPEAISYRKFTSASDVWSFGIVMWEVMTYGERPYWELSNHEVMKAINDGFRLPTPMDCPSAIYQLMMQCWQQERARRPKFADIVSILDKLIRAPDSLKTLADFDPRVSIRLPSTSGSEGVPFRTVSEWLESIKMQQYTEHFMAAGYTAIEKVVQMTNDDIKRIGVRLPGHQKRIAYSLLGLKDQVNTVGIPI

residual activity ([1]; compound 1.0 µM): 84% | residual activity ([1]; compound 10.0 µM): 72% | residual activity ([2]; compound 1.0 µM): 61% | residual activity ([2]; compound 10.0 µM): 27% | residual activity ([3]; compound 1.0 µM): 82% | residual activity ([3]; compound 10.0 µM): 57% | residual activity [4]: 47% | residual activity ([5]; compound 1.0 µM): 66% | residual activity ([5]; compound 10.0 µM): 53% | residual activity ([6]; compound 1.0 µM): 105% | residual activity ([6]; compound 10.0 µM): 98% | residual activity [7]: 101% | residual activity ([8]; compound 1.0 µM): 100% | residual activity ([8]; compound 10.0 µM): 99% | residual activity [9]: 40% | residual activity ([10]; compound 1.0 µM): 77% | residual activity ([10]; compound 10.0 µM): 66% | residual activity ([11]; compound 1.0 µM): 93% | residual activity ([11]; compound 10.0 µM): 78% | residual activity ([12]; compound 1.0 µM): 84% | residual activity ([12]; compound 10.0 µM): 59% | residual activity ([14]; compound 1.0 µM): 91% | residual activity ([14]; compound 10.0 µM): 84% | residual activity ([15]; compound 1.0 µM): 118% | residual activity ([15]; compound 10.0 µM): 107% | residual activity ([16]; compound 1.0 µM): 90% | residual activity ([16]; compound 10.0 µM): 73% | residual activity ([17]; compound 1.0 µM): 14% | residual activity ([17]; compound 10.0 µM): 6% | residual activity ([18]; compound 1.0 µM): 6% | residual activity ([18]; compound 10.0 µM): 4% | residual activity ([19]; compound 1.0 µM): 49% | residual activity ([19]; compound 10.0 µM): 49% | residual activity ([20]; compound 1.0 µM): 75% | residual activity ([20]; compound 10.0 µM): 57% | residual activity ([21]; compound 1.0 µM): 5% | residual activity ([21]; compound 10.0 µM): 1% | residual activity ([22]; compound 1.0 µM): 93% | residual activity ([22]; compound 10.0 µM): 67% | residual activity ([23]; compound 1.0 µM): 79% | residual activity ([23]; compound 10.0 µM): 64% | residual activity ([24]; compound 1.0 µM): 63% | residual activity ([24]; compound 10.0 µM): 45% | residual activity [25]: 105% | residual activity ([26]; compound 1.0 µM): 15% | residual activity ([26]; compound 10.0 µM): 23% | residual activity ([27]; compound 1.0 µM): 96% | residual activity ([27]; compound 10.0 µM): 88% | residual activity ([28]; compound 1.0 µM): 99% | residual activity ([28]; compound 10.0 µM): 77% | residual activity ([29]; compound 1.0 µM): 78% | residual activity ([29]; compound 10.0 µM): 84% | residual activity ([30]; compound 1.0 µM): 24% | residual activity ([30]; compound 10.0 µM): 8% | residual activity ([31]; compound 1.0 µM): 29% | residual activity ([31]; compound 10.0 µM): 6% | residual activity ([32]; compound 1.0 µM): 93% | residual activity ([32]; compound 10.0 µM): 79% | residual activity ([33]; compound 1.0 µM): 5% | residual activity ([33]; compound 10.0 µM): 4% | residual activity ([34]; compound 1.0 µM): 94% | residual activity ([34]; compound 10.0 µM): 111% | residual activity ([35]; compound 1.0 µM): 101% | residual activity ([35]; compound 10.0 µM): 83%
SMILES: COc1cc2ncn(-c3cc(OCc4ccccc4S(C)(=O)=O)c(C#N)s3)c2cc1OC
residual activity ([13]; compound 1.0 µM): 65% | residual activity ([13]; compound 10.0 µM): 15%
